In patent publication US20250099514A1, “FISH REARING COMPOSITION, AND COMPOSITION FOR PREVENTING OR TREATING FISH DISEASES” (SUMITOMO CHEMICAL COMPANY, LIMITED, priority 2021, published 2025):
Non-standard residues stand in square brackets, D forms with d. Primed or numbered codes have the meaning given here. No end group written: not given here. Dhb′ = not defined here; Dha = C=C(N)C(=O)O

Experiments:
[1] = test system: Lactococcus garvieae 03/8460 strain; details: NPL 3; cited from earlier work
[2] = test system: Lactococcus garvieae CLG4 strain; details: NPL 4; cited from earlier work
[3] = test system: Lactococcus garvieae type I (TUMSAT-K9408 strain); test: Antibacterial activity test: growth of Lactococcus garvieae type I after shaking culture with the test substance, colony formation on TH agar; type: cell-based; details: Experiments 8 and 9, 1 to 10 μM
Experimental: (§1) Examination was performed on whether bacterial cell preparations of NITE BP-03198, NITE BP-03199, NITE BP-03200, NITE BP-03202, ATCC-11454, and NITE ABP-03481 inhibit the growth of Lactococcus garvieae type I (TUMSAT-K9408 strain) and type II (TUMSAT-LgN1 strain). With reference to FIG. 7, the experimental method will be described. To 270 μL of Todd-Hewitt (TH) medium 10, 30 μL of a lactic acid bacterial cell preparation 11 was added. Furthermore, 3 μL of a bacterial solution 12 containing Lactococcus garvieae (approximately 10^5 cfu/mL) was added, and shaking culture was performed at 25° C. for 8 hours. To TH agar medium 14, 5 μL of a bacterial culture solution 13 was dropped, culture was performed at 25° C. for 12 hours, and whether a colony 15 of Lactococcus garvieae formed was observed. If the number of colonies observed was five or less, it was determined that there was antibacterial activity. Lactic acid bacterial cell preparations were prepared in the following manner. For NITE BP-03198, NITE BP-03199, NITE BP-03200, and NITE BP-03202, first, the lactic acid bacteria were each cultured in MRS Broth at a temperature of 30° C., giving culture solutions. Thereafter, the culture solutions were centrifuged to precipitate bacterial cells, and the culture supernatants were collected. […]

[4] = test system: Lactococcus garvieae type II (TUMSAT-LgN1 strain); test: Antibacterial activity test: growth of Lactococcus garvieae type II after shaking culture with the test substance, colony formation on TH agar; type: cell-based; details: Experiments 8 and 9, 1 to 10 μM
Experimental: as §1

[5] = test system: Lactococcus garvieae type I (TUMSAT-K9408 strain); test: Antibacterial activity test: growth of Lactococcus garvieae type I after shaking culture with the test substance, colony formation on TH agar; type: cell-based; parameters: key: +: presence of antibacterial activity; −: absence of antibacterial activity; details: 25° C., 8 hours
Experimental: (§2) Examination was performed on whether bacterial cell preparations of NITE BP-03198, NITE BP-03199, NITE BP-03200, NITE BP-03202, ATCC-11454, and NITE ABP-03481 inhibit the growth of Lactococcus garvieae type I (TUMSAT-K9408 strain) and type II (TUMSAT-LgN1 strain). With reference to FIG. 7, the experimental method will be described. To 270 μL of Todd-Hewitt (TH) medium 10, 30 μL of a lactic acid bacterial cell preparation 11 was added. Furthermore, 3 μL of a bacterial solution 12 containing Lactococcus garvieae (approximately 10^5 cfu/mL) was added, and shaking culture was performed at 25° C. for 8 hours. To TH agar medium 14, 5 μL of a bacterial culture solution 13 was dropped, culture was performed at 25° C. for 12 hours, and whether a colony 15 of Lactococcus garvieae formed was observed. If the number of colonies observed was five or less, it was determined that there was antibacterial activity. Lactic acid bacterial cell preparations were prepared in the following manner. For NITE BP-03198, NITE BP-03199, NITE BP-03200, and NITE BP-03202, first, the lactic acid bacteria were each cultured in MRS Broth at a temperature of 30° C., giving culture solutions. Thereafter, the culture solutions were centrifuged to precipitate bacterial cells, and the culture supernatants were collected. The culture supernatants collected were 10-fold concentrated by using an ultrafiltration membrane (Merck Millipore, AMICON ULTRA-15 3 KDa cutoff), giving bacterial cell preparations. For ATCC-11454 and NITE ABP-03481, bacterial cell preparations were obtained in the same manner as described for NITE BP-03198 and others. As a negative control, medium for lactic acid bacteria (MRS Broth) was added to a bacterial solution containing Lactococcus garvieae.
(§3) Examination was performed on whether synthetic plantaricins inhibit the growth of Lactococcus garvieae type I (TUMSAT-K9408 strain) and type II (TUMSAT-LgN1 strain). The method in Experiment 8 is the same as that in Experiment 7 except that synthetic plantaricins were used in place of the lactic acid bacterial cell preparations. Each synthetic plantaricin was synthesized by using common techniques of organic synthesis. A solution containing plantaricin A (plantaricin A), a solution obtained by mixing plantaricin E and plantaricin F at a ratio (mole ratio) of 1:1 (plantaricin EF), a solution obtained by mixing plantaricin J and plantaricin K at a ratio (mole ratio) of 1:1 (plantaricin JK), or a solution obtained by mixing plantaricin NC8α and plantaricin NC8β at a ratio (mole ratio) of 1:1 (plantaricin NC8αβ) was added to a bacterial solution containing Lactococcus garvieae, and shaking culture was performed at 25° C. for 8 hours. The bacterial solutions containing Lactococcus garvieae after culture were each dropped on agar medium, and whether a colony of Lactococcus garvieae formed was observed.
Examination was performed on whether a purified product of nisin A inhibits the growth of Lactococcus garvieae type I (TUMSAT-K9408 strain) and type II (TUMSAT-LgN1 strain). The method in Experiment 9 is the same as those in Experiments 7 and 8 except that a purified product of nisin A was used in place of the lactic acid bacterial cell preparations or the synthetic plantaricins. A purified product of nisin A (manufactured by Sigma-Aldrich Co. LLC) was dissolved in water and removed of insoluble components by centrifugation, giving a nisin A solution. […]

[6] = test system: Lactococcus garvieae type II (TUMSAT-LgN1 strain); test: Antibacterial activity test: growth of Lactococcus garvieae type II after shaking culture with the test substance, colony formation on TH agar; type: cell-based; parameters: key: +: presence of antibacterial activity; −: absence of antibacterial activity; details: 25° C., 8 hours
Experimental: as §2
as §3, with “The bacterial solutions containing Lactococcus garvieae after culture were each dropped on agar medium, and whether a colony of Lactococcus garvieae formed was observed.” left out

[7] = test system: Lactococcus garvieae type I (TUMSAT-K9408 strain); test: Antibacterial activity test: growth of Lactococcus garvieae type I after shaking culture with the test substance, colony formation on TH agar; type: cell-based; parameters: key: +: presence of antibacterial activity,; −: absence of antibacterial activity; details: synthetic plantaricin 10 μM; 25° C., 8 hours
Experimental: as §1

[8] = test system: Lactococcus garvieae type II (TUMSAT-LgN1 strain); test: Antibacterial activity test: growth of Lactococcus garvieae type II after shaking culture with the test substance, colony formation on TH agar; type: cell-based; parameters: key: +: presence of antibacterial activity,; −: absence of antibacterial activity; details: 25° C., 8 hours
Experimental: as §1

Row | Substance | Growth of the Lactococcus garvieae 03/8460 strain [1] | Growth of the Lactococcus garvieae CLG4 strain [2] | Inhibition of the growth of Lactococcus garvieae type I (in words) [3] | Inhibition of the growth of Lactococcus garvieae type II (in words) [4] | Antibacterial activity, Lactococcus garvieae TUMSAT-K9408 ([5]; synthetic plantaricin 1 μM) | Antibacterial activity, Lactococcus garvieae TUMSAT-K9408 ([5]; synthetic plantaricin 3 μM) | Antibacterial activity, Lactococcus garvieae TUMSAT-LgN1 ([6]; synthetic plantaricin 1 μM) | Antibacterial activity, Lactococcus garvieae TUMSAT-K9408 [7] | Antibacterial activity, Lactococcus garvieae TUMSAT-LgN1 ([8]; synthetic plantaricin 3 μM) | Antibacterial activity, Lactococcus garvieae TUMSAT-LgN1 ([8]; synthetic plantaricin 10 μM) | Antibacterial activity, Lactococcus garvieae TUMSAT-K9408 ([5]; nisin A solution 1 μM) | Antibacterial activity, Lactococcus garvieae TUMSAT-K9408 ([5]; nisin A solution 3 μM) | Antibacterial activity, Lactococcus garvieae TUMSAT-K9408 ([5]; nisin A solution 10 μM) | Antibacterial activity, Lactococcus garvieae TUMSAT-LgN1 ([6]; nisin A solution 1 μM) | Antibacterial activity, Lactococcus garvieae TUMSAT-LgN1 ([6]; nisin A solution 3 μM) | Antibacterial activity, Lactococcus garvieae TUMSAT-LgN1 ([6]; nisin A solution 10 μM)
1 | nisin Z (I[Dhb′]SI[Dha]LCTPGCKTGALMGCNMKTATCNCSIHV[Dha]K; thioether (positions not given here); not fully specified (residues 3, 8, 13, 23, 25, bridges); also: lanthionine thioether rings and dehydro residues not placed; UniProt P29559 24-57, looked up) [antibacterial peptide produced by Lactococcus lactis strains TW34 and WA2-67 (literature)] | inhibited the growth | inhibited the growth |  |  |  |  |  |  |  |  |  |  |  |  |  | 
2 | plantaricin A |  |  | inhibited the growth | inhibited the growth | − | − | − | + | + | + |  |  |  |  |  | 
3 | nisin A (I[Dhb′]SI[Dha]LCTPGCKTGALMGCNMKTATCHCSIHV[Dha]K; thioether (positions not given here); not fully specified (residues 3, 8, 13, 23, 25, bridges); also: lanthionine thioether rings and dehydro residues not placed; UniProt P13068 24-57, looked up) [purified product of nisin A (manufactured by Sigma-Aldrich Co. LLC) dissolved in water] |  |  | inhibited the growth | inhibited the growth |  |  |  |  |  |  | + | + | + | + | + | +
